Laboratory results published in patent publication US20150175655A1 (priority 2012, published 2015).

What was measured:
Format in all cases: cell-based
[1] = tested on: genotype 1a (H77) wild-type transient HCV replicon in Huh-7-derived cells; assay: Transient-transfected HCV replicon EC50, genotype 1a wild type; conditions: Hepatitis C virus; transient-transfected replicon genotype 1a wild type, 72 h; read-out: EC50 1A WT
[2] = tested on: genotype 1b (Con1) wild-type transient HCV replicon in Huh-7-derived cells; assay: Transient-transfected HCV replicon EC50, genotype 1b wild type; conditions: Hepatitis C virus; transient-transfected replicon genotype 1b wild type, 72 h; read-out: EC50 1B WT
[3] = tested on: genotype 1a transient HCV replicon, NS3/4a protease inhibitor resistant variant R155K, in Huh-7-derived cells; assay: Transient-transfected HCV replicon EC50, genotype 1a R155K; conditions: Hepatitis C virus, 72 h, read-out: EC50 1A R155K
[4] = tested on: genotype 1b stable HCV replicon in Huh-7-derived cells; assay: Stable subgenomic HCV replicon EC50, genotype 1b (Renilla luciferase); conditions: Hepatitis C virus, stable replicon genotype 1b, 72 h, read-out: EC50 1B RLUC
Method: (§1) Antiviral potency (EC50) was determined in both stable subgenomic HCV replicon cell lines and transient-transfected HCV replicon cells. The term half maximal effective concentration (EC50) refers to the concentration of a drug which induces a response halfway between the baseline and maximum after the exposure time specified below.
(§2) Stable subgenomic HCV replicons for genotype 1a, 1 b, 2a, 3a, and 4a were established in Huh-7-derived cells as described by Lohmann et al (Lohmann V, Korner F, Koch J, et al Replication of subgenomic hepatitis C virus RNAs in a hepatoma cell line. Science 1999; 285:119-3). Each stable cell line contains a bicistronic HCV replicon that encodes a humanized Renilla luciferase (hRLuc) reporter gene fused to a selectable neomycin-resistance gene, followed by an EMCV IRES and the NS3-NS5B coding region of HCV. […] Luciferase activity was measured as a marker for intracellular HCV replication levels.
(§3) The genotype 1a stable replicon was derived from the H77 HCV strain and contained adaptive mutations P1496L and S2204I. The genotype 1 b stable replicon was derived from the Cont HCV strain and contained adaptive mutations E1202G, T1280I, and K1846T. […] The genotype 3a stable replicon was derived from the S52 HCV strain and contained adaptive mutations P1121 L, A1198T and S2210I (equivalent to S2204I in genotype 1). The genotype 4a stable replicon was derived from the ED43 HCV strain and contained adaptive mutations Q1691R and S2204I. All replicon cell lines were propagated in Huh-7-derived cells and maintained in Dulbecco's modified Eagle's Medium (DMEM) supplemented with 10% fetal bovine serum (FBS) and 0.5 mg/mL G418.
(§4) To perform EC50 assays, cells from each HCV replicon were dispensed into 384-well plates. Compounds were dissolved in DMSO at a concentration of 10 mM and diluted in DMSO using an automated pipetting instrument. Three-fold serially diluted compounds were directly added to the cells using an automated instrument. […] Seventy-two hours later, cells were lysed and Renilla luciferase activity were quantified as recommended by the manufacturer (Promega-Madison, Wis.). Non-linear regression was performed to calculate EC50 values.

[5] = tested on: genotype 3a stable HCV replicon (S52 strain) in Huh-7-derived cells; assay: Stable subgenomic HCV replicon EC50, genotype 3a (Renilla luciferase); conditions: Hepatitis C virus, 72 h, read-out: EC50 3A RLUC
Method: as §1, §2, §3, §4

| SMILES | EC50 [1] [nM] | EC50 [2] [nM] | EC50 [3] [nM] | EC50 [4] [nM] | EC50 [5] [nM] |
| --- | --- | --- | --- | --- | --- |
| C[C@@H]1[C@@H]2CN(C(=O)[C@H](C(C)(C)C)NC(=O)O[C@@H]3C[C@H]3CCCCC(F)(F)c3nc4ccc(Cl)cc4nc3O2)[C@@H]1C(=O)N[C@]1(C(=O)NS(=O)(=O)C2(C)CC2)C[C@H]1C(F)F [Example 88, (1aR,5S,8S,9S,10R,22aR)-5-tert-butyl-14-chloro-N-[(1R,2R)-2-(difluoromethyl)-1-{[(1-methylcyclopropyl)sulfonyl]carbamoyl}cyclopropyl]-18,18-difluoro-9-methyl-3,6-dioxo-1,1a,3,4,5,6,9,10,18,19,20,21,22,22a-tetradecahydro-8H-7,10-methanocyclopropa[18,19][1,10,3,6]dioxadiazacyclononadecino[11,12-b]quinoxaline-8-carboxamide] | 5 | 5.5 | 14 | 4.6 | 105 |
| CC[C@@H]1[C@@H]2CN(C(=O)[C@H](C(C)(C)C)NC(=O)O[C@]3(C)CCC[C@H]3CCCCCc3nc4ccc(OC)cc4nc3O2)[C@@H]1C(=O)N[C@]1(C(=O)NS(=O)(=O)C2(C)CC2)C[C@H]1CC(F)F [Example 41, (3aR,7S,10S,11S,12R,24aR)-7-tert-butyl-N-[(1R,2S)-2-(2,2-difluoroethyl)-1-{[(1-methylcyclopropyl)sulfonyl]carbamoyl}cyclopropyl]-11-ethyl-16-methoxy-3a-methyl-5,8-dioxo-1,2,3,3a,5,6,7,8,11,12,20,21,22,23,24,24a-hexadecahydro-10H-9,12-methanocyclopenta[18,19][1,10,3,6]dioxadiazacyclononadecino[11,12-b]quinoxaline-10-carboxamide] | 164 | 154 |  | 142 |  |
| CC[C@@H]1[C@@H]2CN(C(=O)[C@H](C(C)(C)C)NC(=O)O[C@@H]3C[C@H]3CC/C=C/C(F)(F)C3Nc4ccc(C#N)cc4N=C3O2)[C@@H]1C(=O)N[C@]1(C(=O)NS(=O)(=O)C2(C)CC2)C[C@H]1C(F)F (stereo partly drawn) [Example 78, (1aR,5S,8S,9S,10R,19E,22aR)-5-tert-butyl-14-cyano-N-[(1R,2R)-2-(difluoromethyl)-1-{[(1-methylcyclopropyl)sulfonyl]carbamoyl}cyclopropyl]-9-ethyl-18,18-difluoro-3,6-dioxo-1,1a,3,4,5,6,9,10,17,17a,18,21,22,22a-tetradecahydro-8H-7,10-methanocyclopropa[18,19][1,10,3,6]dioxadiazacyclononadecino[11,12-b]quinoxaline-8-carboxamide] | 189 | 156 | 225 | 394 | 1120 |
| COc1ccc2nc3c(nc2c1)O[C@H]1CN(C(=O)[C@H](C(C)(C)C)NC(=O)O[C@@H]2C[C@H]2CCCCC3F)[C@H](C(=O)N[C@]2(C(=O)NS(=O)(=O)C3(C)CC3)C[C@H]2C(F)F)[C@@H]1C (stereo partly drawn) [Example 47, (1aR,5S,8S,9S,10R,22aR)-5-tert-butyl-N-[(1R,2R)-2-(difluoromethyl)-1-{[(1-methylcyclopropyl)sulfonyl]carbamoyl}cyclopropyl]-18-fluoro-14-methoxy-9-methyl-3,6-dioxo-1,1a,3,4,5,6,9,10,18,19,20,21,22,22a-tetradecahydro-8H-7,10-methanocyclopropa[18,19][1,10,3,6]dioxadiazacyclononadecino[11,12-b]quinoxaline-8-carboxamide] | 5.4 | 2 | 6.1 | 3.6 | 58 |
